From the supplement of paper PMC11208160

Experiment: recombinant barcode read abundance after kanamycin selection (control-corrected) (log10(CPM+1)); higher = more efficient recombination; sequences stand for … in AGTGCAGAGAAAATCGGCCAGTTTTCTCTGCCTGCAGTCCGCATGCCGT…AGATTTATGCAGCGGACTGCCTTTCTCCCAAAGTGATAAACCGGACAGTATCATGGACCGGTTTTCCCGGTAATCCGTATTTGCAAGGTTGGTTTCACT; site = the 11-nt target
Description: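 Pooled E. coli target-specificity screen for the IS621 bridge recombinase. Each library plasmid pairs an 11-nt target (CT core) with a bridge RNA whose target-binding loop (9-nt LTG + 4-nt RTG) is reprogrammed; the rest of the 177-nt WT IS621 bridge RNA scaffold is fixed. The plasmid is co-electroporated with a WT donor plasmid; recombinase is induced with 0.1 mM IPTG and recombinants are selected on kanamycin. Recombinant barcodes are sequenced, converted to CPM, averaged over two biological replicates and corrected by the unselected control CPM. Molecule = full bridge RNA written as DNA: LTG = specificity nt 1-9, RTG = reverse complement of specificity nt 8-11, in the WT scaffold.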
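Also: IS621 recombinase and bridge RNA in Escherichia coli cells.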

Sequence | recombinant barcode read abundance (log10)
ACCAAATCTTGGGTTCTAACCTGTTGCCG (site ACCAAATCTTA) | 0.0479
ACCAAGACTTGGGTTCTAACCTGTTGCCG (site ACCAAGACTCG) | 0.373
ACCAAGACTTGGGTTCTAACCTGTTGCCG (site TCCAAGACTCT) | 0.00901
ACCAAGCCTTGGGTTCTAACCTGTTGCGG (site ACCAAGCCTCC) | 1.36
ACCAAGCCTTGGGTTCTAACCTGTTGCGG (site GCCCAGCCTCC) | 0.295
ACCAATCCTTGGGTTCTAACCTGTTGCCT (site ACCAATACTAG) | 0.087
ACCAATCCTTGGGTTCTAACCTGTTGCCT (site ACCAATCCTAG) | 0.21
ACCAATCCTTGGGTTCTAACCTGTTGCCT (site ACCAATGCTAG) | 0.177
ACCAATCCTTGGGTTCTAACCTGTTGCCT (site ACCAATTCTAG) | 0.0626
ACCAGGTCTTGGGTTCTAACCTGTTGCCT (site AACAGGTCTAG) | 0.15
ACCAGGTCTTGGGTTCTAACCTGTTGCCT (site ACCAGGTCTAG) | 1.59
ACCAGGTCTTGGGTTCTAACCTGTTGCCT (site AGCAGGTCTAG) | 0.208
ACCAGGTCTTGGGTTCTAACCTGTTGCCT (site ATCAGGTCTAG) | 0.09
ACCAGTCCTTGGGTTCTAACCTGTTGCTG (site ACCAGTCCTCA) | 1.97
ACCAGTCCTTGGGTTCTAACCTGTTGCTG (site ACCAGTCCTTA) | 0.0735
ACCCAAACTTGGGTTCTAACCTGTTGCCT (site ACCCAAACTAG) | 1.08
ACCCAAACTTGGGTTCTAACCTGTTGCCT (site ACCCAACCTAG) | 0.0677
ACCCAAACTTGGGTTCTAACCTGTTGCCT (site ACCCAAGCTAG) | 0.161
ACCCAAACTTGGGTTCTAACCTGTTGCCT (site ACCCAATCTAG) | 0.0553
ACCCGCTCTTGGGTTCTAACCTGTTGCCT (site ACCCGCTCTAG) | 0.542
ACCCGCTCTTGGGTTCTAACCTGTTGCCT (site TAGGATCCTTC) | 0.538
ACCCTAACTTGGGTTCTAACCTGTTGCGG (site ACCCTAACTCC) | 1.16

Sequence | recombinant barcode read abundance (log10)
ACCCTAACTTGGGTTCTAACCTGTTGCGG (site ACCTTAGCTCC) | 0
ACCCTATCTTGGGTTCTAACCTGTTGCCT (site ACCCTAACTCG) | 0.0342
ACCCTATCTTGGGTTCTAACCTGTTGCCT (site ACCCTATCTAG) | 1.39
ACCCTCCCTTGGGTTCTAACCTGTTGCTA (site ACCCTCCCTTA) | 2.47
ACCCTCCCTTGGGTTCTAACCTGTTGCTA (site ACTCTACCTTA) | 0.136
ACCGGTCCTTGGGTTCTAACCTGTTGCGT (site ACCGGTCCTAC) | 2.14
ACCGGTCCTTGGGTTCTAACCTGTTGCGT (site ATCGTTCCTAC) | 0.0193
ACCGTACCTTGGGTTCTAACCTGTTGCCT (site ACCGTACCTAG) | 0.304
ACCGTACCTTGGGTTCTAACCTGTTGCCT (site ACCGTAGCTAG) | 0.0594
ACCGTTCCTTGGGTTCTAACCTGTTGCCT (site ACCGTTCCTAG) | 0.78
ACCGTTCCTTGGGTTCTAACCTGTTGCCT (site CTTTAAGCTTA) | 0.0328
ACCTAACCTTGGGTTCTAACCTGTTGCAT (site ACCTAACCTAT) | 1.67
ACCTAACCTTGGGTTCTAACCTGTTGCAT (site ATCTATCCTAT) | 0.214
ACCTACCCTTGGGTTCTAACCTGTTGCGG (site ACCTACCCTCC) | 2.33
ACCTACCCTTGGGTTCTAACCTGTTGCGG (site CGAACATCTAA) | 0.169
ACCTACCCTTGGGTTCTAACCTGTTGCGT (site ACATATCCTAC) | 0.0563
ACCTACCCTTGGGTTCTAACCTGTTGCGT (site ACCTACCCTAC) | 1.54
ACCTACTCTTGGGTTCTAACCTGTTGCCT (site ACCTACGCTAG) | 0.0426
ACCTACTCTTGGGTTCTAACCTGTTGCCT (site ACCTACTCTAG) | 1.36
ACCTGAACTTGGGTTCTAACCTGTTGCCT (site ACATGAACTAG) | 0.056
ACCTGAACTTGGGTTCTAACCTGTTGCCT (site ACCTGAACTAG) | 0.75
ACCTGAACTTGGGTTCTAACCTGTTGCCT (site ACGTGAACTAG) | 0.0712

Sequence | recombinant barcode read abundance (log10)
ACCTGAACTTGGGTTCTAACCTGTTGCCT (site ACTTGAACTAG) | 0.0237
ACCTGTGCTTGGGTTCTAACCTGTTGCCT (site ACCTGTGCTAG) | 0.874
ACCTGTGCTTGGGTTCTAACCTGTTGCCT (site ATCTGTTCTAG) | 0.151
ACCTTGTCTTGGGTTCTAACCTGTTGCCT (site ACATTGTCTAG) | 0.217
ACCTTGTCTTGGGTTCTAACCTGTTGCCT (site ACCTTGTCTAG) | 0.93
ACCTTGTCTTGGGTTCTAACCTGTTGCCT (site ACGTTGTCTAG) | 0.0273
ACCTTGTCTTGGGTTCTAACCTGTTGCCT (site ACTTTGTCTAG) | 0.0709
ACGAACCCTTGGGTTCTAACCTGTTGCCT (site ACGAACCCTAG) | 1.42
ACGAACCCTTGGGTTCTAACCTGTTGCCT (site ACGGACCCTAT) | 0.247
ACGAAGACTTGGGTTCTAACCTGTTGCCG (site ACGAAGACTCG) | 1.08
ACGAAGACTTGGGTTCTAACCTGTTGCCG (site ACGAGGACTCG) | 0.0668
ACGACGTCTTGGGTTCTAACCTGTTGCTT (site ACGACGTCTAA) | 0.292
ACGACGTCTTGGGTTCTAACCTGTTGCTT (site TCGACGCCTAA) | 0.08
ACGACTACTTGGGTTCTAACCTGTTGCCG (site ACGACTACTCG) | 0.618
ACGACTACTTGGGTTCTAACCTGTTGCCG (site TATTGGCCTAC) | 0.123
ACGATAACTTGGGTTCTAACCTGTTGCCA (site ACGATAACTTG) | 0.215
ACGATAACTTGGGTTCTAACCTGTTGCCA (site CTAGATTCTAT) | 0.363
ACGATACCTTGGGTTCTAACCTGTTGCCT (site ACGATACCTAG) | 0.967
ACGATACCTTGGGTTCTAACCTGTTGCCT (site ACGTTACCTAG) | 0.0943
ACGATATCTTGGGTTCTAACCTGTTGCCT (site AAGATATCTAG) | 0.181
ACGATATCTTGGGTTCTAACCTGTTGCCT (site ACGATATCTAG) | 1.37
ACGATATCTTGGGTTCTAACCTGTTGCCT (site AGGATATCTAG) | 0.549
